The text below walks through data of patent publication US20230146455A1, “TREATMENT OF INFLAMMATORY DISEASES WITH PEPTIDES AND PHARMACEUTICAL COMPOSITIONS” (Yuyu Pharma, Inc., priority 2020, published 2023).

Values joined by “and” are separate entries in the source; they are usually repeats but may differ in a detail not shown here. Equal entries are not always repeated. Where a SMILES comes first, the peptide text is derived from it. [ ]: non-standard residue; d: D form. Hyp = O=C(O)[C@@H]1C[C@@H](O)CN1

This test deals with CCL2/MCP-1. Put plainly: Example 8 main study Luminex, LPS hPBMCs: CCL2/MCP-1. The format is cell-based, human. To be noted: for CCL2/MCP-1 Concentration: single replicates; for LPS-induced CCL-2 (in words): at as low as 5 μM, LPS 5 ug/mL 24 hrs. Here is the method:
Human PBMCs were pretreated with YY-101, YDE-011, YDE-043 or reference compound; Xiidra® at various concentration (ranging from […] to 500 nM) for 2 h before stimulation. An equal volume of 0.5% DMSO was used as a vehicle control. Then, the cells were treated with LPS at 5 ug/ml, which was selected based on the pilot study. The supernatants from treated cells were harvested at 24 h and placed in a 96 well for Luminex cytokine & chemokine profiling using a Luminex 200 multiplex assay (Luminex; R&D system, USA).
The main study arm with triplicate wells per group in a 24-well plate: • 1. Blank • 2. PBMC: 0.5% DMSO • 3. PBMC+LPS (5 ug/ml) • 4. PBMC+YY-101 500 nM • 5. PBMC+YY-101 50 nM • 6. PBMC+YY-101 5 nM • 7. PBMC+YY-101 0.5 nM • 8. PBMC+LPS (5 ug/ml)+Xiidra® 500 nM • 9. PBMC+LPS (5 ug/ml)+Xiidra® 50 nM • 10. PBMC+LPS (5 ug/ml)+Xiidra® 5 nM • 11. PBMC+LPS (5 ug/ml)+Xiidra® 0.5 nM • 12. PBMC+LPS (5 ug/ml)+Xiidra® 0.05 nM • 13. PBMC+LPS (5 ug/ml)+Xiidra® 0.005 nM • 14. PBMC+LPS (5 ug/ml)+YY-101 500 nM • 15. PBMC+LPS (5 ug/ml)+YY-101 50 nM • 16. PBMC+LPS (5 ug/ml)+YY-101 5 nM • 17. PBMC+LPS (5 ug/ml)+YY-101 0.5 nM • 18. PBMC+LPS (5 ug/ml)+YY-101 0.05 nM • 19. PBMC+LPS (5 ug/ml)+YY-101 0.005 nM • 20. PBMC+LPS (5 ug/ml)+YDE-011 500 nM • 21. PBMC+LPS (5 ug/ml)+YDE-011 50 nM • 22. PBMC+LPS (5 ug/ml)+YDE-011 5 nM • 23. PBMC+LPS (5 ug/ml)+YDE-011 0.5 nM • 24. PBMC+LPS (5 ug/ml)+YDE-011 0.05 nM • 25. PBMC+LPS (5 ug/ml)+YDE-011 0.005 nM • 26. PBMC+LPS (5 ug/ml)+YDE-043 500 nM • 27. PBMC+LPS (5 ug/ml)+YDE-043 50 nM • 28. PBMC+LPS (5 ug/ml)+YDE-043 5 nM • 29. PBMC+LPS (5 ug/ml)+YDE-043 0.5 nM • 30. PBMC+LPS (5 ug/ml)+YDE-043 0.05 nM • 31. PBMC+LPS (5 ug/ml)+YDE-043 0.005 nM
Multiplex assay was used to measure 30 cytokines and chemokines. The 1:200 diluted cell supernatant and serial dilution of the standard were dispensed into a 96 well plate at 50 ul/well. Then, the pre-mixed cocktail of antibody-coated magnetic beads was dispensed at 50 ul/well and incubated at room temperature for 2 h in a horizontal orbital microplate shaker at 800±500 rpm. The beads were washed using a magnetic device to prevent loss. The biotin-antibody was dispensed in 50 ul of each well and incubated at room temperature for 1 h in a shaker at 800±500 rpm. After washing, streptavidin-PE was added at 50 ul/well and incubated at room temperature for 30 min in a shaker under the same conditions. Finally, after washing, wash buffer (100 ul/well) was added to the plate and incubated in a shaker for 2 min. The Luminex™ 200 setting were set according to the manufacturer's protocol. The data was calculated with a standard five-parameter logistic nonlinear regression analysis of the data (xPonent software 4.2, USA). Results were presented as concentration (ng/ml or pg/ml).

[1] abbreviates: PBMC + LPS(5 ug/ml) + YDE011 0.005 nM.
Where [2] appears, read: PBMC + LPS(5 ug/ml) + YDE011 0.05 nM.
Setting [3] is: PBMC + LPS(5 ug/ml) + YDE011 0.5 nM.
Setting [4] is: PBMC + LPS(5 ug/ml) + YDE011 5 nM.
Where [5] appears, read: PBMC + LPS(5 ug/ml) + YDE011 50 nM.
The mark [6] stands for this setting: PBMC + LPS(5 ug/ml) + YDE011 500 nM.
[7] abbreviates: PBMC + LPS(5 ug/ml) + YDE043 0.005 nM.
[8] abbreviates: PBMC + LPS(5 ug/ml) + YDE043 0.05 nM.
Where [9] appears, read: PBMC + LPS(5 ug/ml) + YDE043 0.5 nM.
[10] abbreviates: PBMC + LPS(5 ug/ml) + YDE043 5 nM.
Setting [11] is: PBMC + LPS(5 ug/ml) + YDE043 50 nM.
Where [12] appears, read: PBMC + LPS(5 ug/ml) + YDE043 500 nM.
Where [13] appears, read: PBMC + LPS(5 ug/ml) + YY101 0.005 nM.
[14] abbreviates: PBMC + LPS(5 ug/ml) + YY101 0.05 nM.
Setting [15] is: PBMC + LPS(5 ug/ml) + YY101 0.5 nM.
The mark [16] stands for this setting: PBMC + LPS(5 ug/ml) + YY101 5 nM.
[17] abbreviates: PBMC + LPS(5 ug/ml) + YY101 50 nM.
The mark [18] stands for this setting: PBMC + LPS(5 ug/ml) + YY101 500 nM.

As for `CC(C)C[C@H](NC(=O)CNC(=O)[C@H](CC(C)C)NC(=O)[C@H](CCC(N)=O)NC(=O)CNC(=O)[C@@H]1C[C@@H](O)CN1)C(=O)N[C@@H](C)C(=O)NCC(=O)N1CCC[C@H]1C(=O)N[C@@H](CCCCN)C(=O)O` [YDE-011] (H-[Hyp]GQLGLAGPK-OH), the “LPS-induced CCL-2 (in words)” value was “significantly reduced”. In addition, under setting [1], the “CCL2/MCP-1 Concentration, Mean” value was determined as 4425.2 pg/mL; the “CCL2/MCP-1 Concentration” value was 4425.5 pg/mL and 4528.4 pg/mL and 4321.5 pg/mL. For the same molecule, under setting [2], the “CCL2/MCP-1 Concentration, Mean” value worked out at 4442.7 pg/mL; the “CCL2/MCP-1 Concentration” value was 4425.5 pg/ml (2×) and 4477.1 pg/ml. Moreover, under setting [3], the “CCL2/MCP-1 Concentration, Mean” value is 4303.7 pg/mL; the “CCL2/MCP-1 Concentration” value was 4425.5 pg/mL and 4269.1 pg/mL and 4216.3 pg/mL. Under setting [4], the “CCL2/MCP-1 Concentration, Mean” value was 4178.7 pg/mL; the “CCL2/MCP-1 Concentration” value is 3893.1 pg/ml and 4321.5 pg/ml (2×). In addition, under setting [5], the “CCL2/MCP-1 Concentration, Mean” value came to 4173.5 pg/mL; the “CCL2/MCP-1 Concentration” value was 4528.4 pg/mL and 3670.6 pg/mL and 4321.5 pg/mL. For the same molecule, under setting [6], the “CCL2/MCP-1 Concentration, Mean” value stood at 4170.5 pg/mL; the “CCL2/MCP-1 Concentration” value is 4731.0 pg/mL and 3670.6 pg/mL and 4109.9 pg/mL.
With `CC(C)C[C@H](NC(=O)[C@H](CCC(N)=O)NC(=O)CNC(=O)[C@@H]1C[C@@H](O)CN1)C(=O)NCC(=O)O` [YDE-043] (H-[Hyp]GQLG-OH; N-terminus and C-terminus assumed), the “LPS-induced CCL-2 (in words)” value is “significantly reduced”. In addition, under setting [7], the “CCL2/MCP-1 Concentration, Mean” value was 4629.2 pg/mL; the “CCL2/MCP-1 Concentration” value was 4425.5 pg/ml and 4731.0 pg/ml (2×). In addition, under setting [8], the “CCL2/MCP-1 Concentration, Mean” value was 4545.3 pg/mL; the “CCL2/MCP-1 Concentration” value was 4528.4 pg/mL and 4477.1 pg/mL and 4630.2 pg/mL. Further, under setting [9], the “CCL2/MCP-1 Concentration, Mean” value amounted to 4390.9 pg/mL; the “CCL2/MCP-1 Concentration” value is 4425.5 pg/ml (2×) and 4321.5 pg/ml. Under setting [10], the “CCL2/MCP-1 Concentration, Mean” value was 4562.3 pg/mL; the “CCL2/MCP-1 Concentration” value was 4579.5 pg/mL and 4477.1 pg/mL and 4630.2 pg/mL. In addition, under setting [11], the “CCL2/MCP-1 Concentration, Mean” value was 4578.9 pg/mL; the “CCL2/MCP-1 Concentration” value is 4528.4 pg/mL and 4731.0 pg/mL and 4477.1 pg/mL. Under setting [12], the “CCL2/MCP-1 Concentration, Mean” value stood at 4630.2 pg/mL and the “CCL2/MCP-1 Concentration” value turned out to be 4630.2 pg/mL.
For the molecule `CC(C)C[C@H](NC(=O)CNC(=O)[C@H](CC(=O)O)NC(=O)[C@H](CCC(N)=O)NC(=O)CNC(=O)[C@@H]1C[C@@H](O)CN1)C(=O)N[C@@H](C)C(=O)NCC(=O)N1CCC[C@H]1C(=O)N[C@@H](CCCCN)C(=O)O` [YY-101] (H-[Hyp]GQDGLAGPK-OH; N-terminus and C-terminus assumed), the “LPS-induced CCL-2 (in words)” value is “significantly reduced”. Also, under setting [13], the “CCL2/MCP-1 Concentration, Mean” value came out at 4528.1 pg/mL; the “CCL2/MCP-1 Concentration” value was 4528.4 pg/mL and 4630.2 pg/mL and 4425.5 pg/mL. For the same molecule, under setting [14], the “CCL2/MCP-1 Concentration, Mean” value turned out to be 4596.0 pg/mL; the “CCL2/MCP-1 Concentration” value was 4528.4 pg/ml (2×) and 4731.0 pg/ml. Further, under setting [15], the “CCL2/MCP-1 Concentration, Mean” value came out at 4596.3 pg/mL; the “CCL2/MCP-1 Concentration” value is 4630.2 pg/ml (2×) and 4528.4 pg/ml. For the same molecule, under setting [16], the “CCL2/MCP-1 Concentration, Mean” value is 4629.9 pg/mL; the “CCL2/MCP-1 Concentration” value was 4630.2 pg/mL and 4528.4 pg/mL and 4731.0 pg/mL. Under setting [17], the “CCL2/MCP-1 Concentration, Mean” value was 4613.3 pg/mL; the “CCL2/MCP-1 Concentration” value is 4579.5 pg/ml and 4630.2 pg/ml (2×). In addition, under setting [18], the “CCL2/MCP-1 Concentration, Mean” value amounted to 4459.8 pg/mL; the “CCL2/MCP-1 Concentration” value was 4425.5 pg/ml (2×) and 4528.4 pg/ml. Further, under “PBMC + YY101 0.5 nM, no LPS”, the “CCL2/MCP-1 Concentration, Mean” value stood at 4679.6 pg/mL; the “CCL2/MCP-1 Concentration” value was 4528.4 pg/mL and 4830.8 pg/mL. Under “PBMC + YY101 5 nM, no LPS”, the “CCL2/MCP-1 Concentration, Mean” value came out at 4425.5 pg/mL and the “CCL2/MCP-1 Concentration” value came out at 4425.5 pg/mL. For the same molecule, under “PBMC + YY101 0.05 uM, no LPS”, the “CCL2/MCP-1 Concentration, Mean” value amounted to 5025.5 pg/mL; the “CCL2/MCP-1 Concentration” value is 5782.0 pg/mL and 4269.1 pg/mL. Further, where the note is “PBMC + YY101 50 nM, no LPS”, the “CCL2/MCP-1 Concentration, Mean” value stood at 4373.5 pg/mL; the “CCL2/MCP-1 Concentration” value is 4321.5 pg/mL and 4425.5 pg/mL. For the same molecule, where the note is “PBMC + YY101 500 nM, no LPS”, the “CCL2/MCP-1 Concentration, Mean” value was 4475.9 pg/mL; the “CCL2/MCP-1 Concentration” value is 4321.5 pg/mL and 4630.2 pg/mL.
